Structures can show the parent of a compound that is named as a salt.
Legend:
[1] = molecular target: T1, human chemokine receptor CCR-3 (Homo sapiens, UniProt P51677); experiment: CCR-3 receptor binding assay (SPA) with 125Jodine-eotaxin-1; conditions: membranes of hCCR-3 transfected K562 cells, radioligand 125J rhEotaxin, 2 hours incubation; read-out: Binding constants Ki (Eotaxin at CCR-3-Rezeptor)
T1 construct: expressed in transfected cells; host or cells: K562 cell line (membranes)
T1 sequence (P51677 1-355): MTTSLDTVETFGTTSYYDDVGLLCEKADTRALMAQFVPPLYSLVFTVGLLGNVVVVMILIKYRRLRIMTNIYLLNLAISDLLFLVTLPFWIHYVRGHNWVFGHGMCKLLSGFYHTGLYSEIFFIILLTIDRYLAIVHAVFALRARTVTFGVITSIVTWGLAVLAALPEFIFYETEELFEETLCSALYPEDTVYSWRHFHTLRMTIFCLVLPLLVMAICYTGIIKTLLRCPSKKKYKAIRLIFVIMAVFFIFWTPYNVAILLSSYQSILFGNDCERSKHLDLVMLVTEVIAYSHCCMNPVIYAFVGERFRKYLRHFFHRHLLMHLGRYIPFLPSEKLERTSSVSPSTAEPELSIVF
Description: The CCR-3 receptor binding test is based on a K562 cell line (leukemia myelogenic blast cells) transfected with the human chemokine receptor CCR-3 (hCCR-3-Cl). The cell membranes were prepared by disrupting the hCCR-3 transfected K562 cells by nitrogen […] and centrifugation at 40000 g, 4° C. for 1 h. The membranes were re-suspended in the SPA incubation buffer without bovine serum albumin for storage in aliquots at −80° C.
The CCR-3 receptor binding assay with the radioligand ^125Jodine-eotaxin-1 was performed in a Scintillation Proximity Assay (SPA) design. Cell membranes of hCCR-3 Cl cells were diluted in suitable concentrations (0.5–5 ug protein/well) in 96 well microtiter plates (1450–401, Wallac).
The test incubation mixture comprising 60 μl of the membrane suspension, 80 μl of the Wheat Germ Agglutinin coated PVT beads (organic scintillator, Amersham Pharmacia biotech) in a concentration of 0,4 mg and 40 μl of radiolabelled ^125J rhEotaxin (Amersham, IM290) were incubated with 20 μl of the test compound (dissolved in DMSO dilutions) for 2 hours. […] Bound radioactivity was determined by scintillation counter (Micro Beta “Trilux”, Wallac).
Determination of affinity of test compounds (dissociation constant Ki) was calculated by iterative fitting of experimental data using the law of mass action based program “easy sys” (Schittkowski, Num Math 68, 129–142 (1994)).

SMILES | melting point | Ki [1]
Fc1ccc(SCCCN2CCC(n3c(C(F)(F)C(F)(F)F)nc4cc(F)ccc43)CC2)cc1 (as salt: hydrochloride) [Example 6, 2-Pentafluoroethyl-5-fluoro-1-{1-[3-(4-fluoro-phenylsulfanyl)-propyl]-piperidin-4-yl}-1H-benzoimidazole] | 208 to 209 °C | –
Fc1ccc(SCCCN2CCC(n3c(CC(F)(F)F)nc4cc(F)ccc43)CC2)cc1 (as salt: hydrochloride) [Example 10, 2-(2,2,2-Trifluoroethyl)-5-fluoro-1-{1-[3-(4-fluoro-phenylsulfanyl)-propyl]-piperidin-4-yl}-1H-benzoimidazole] | 158 to 160 °C | –
Fc1ccc(SCCCN2CCC(n3c(C(F)(F)C(F)(F)F)nc4cc(F)ccc43)CC2)cc1 [Example 6, 2-Pentafluoroethyl-5-fluoro-1-{1-[3-(4-fluoro-phenylsulfanyl)-propyl]-piperidin-4-yl}-1H-benzoimidazole] | – | 110 nM
Fc1ccc(SCCCN2CCC(n3c(CC(F)(F)F)nc4cc(F)ccc43)CC2)cc1 [Example 10, 2-(2,2,2-Trifluoroethyl)-5-fluoro-1-{1-[3-(4-fluoro-phenylsulfanyl)-propyl]-piperidin-4-yl}-1H-benzoimidazole] | – | 19 nM

Reference: US7157471B2, “Haloalkyl- and piperidine-substituted benzimidazole-derivatives” (Boehringer Ingelheim International GmbH, priority 2003, dated 2007)
